As a reminder, the melting point is the temperature, or range, at which the solid turns liquid.

Structures are written as SMILES. Structures can show the parent of a compound that is named as a salt. Some results are limits rather than exact numbers.

T1 sequence (P09619 with tags, fused parts or gaps): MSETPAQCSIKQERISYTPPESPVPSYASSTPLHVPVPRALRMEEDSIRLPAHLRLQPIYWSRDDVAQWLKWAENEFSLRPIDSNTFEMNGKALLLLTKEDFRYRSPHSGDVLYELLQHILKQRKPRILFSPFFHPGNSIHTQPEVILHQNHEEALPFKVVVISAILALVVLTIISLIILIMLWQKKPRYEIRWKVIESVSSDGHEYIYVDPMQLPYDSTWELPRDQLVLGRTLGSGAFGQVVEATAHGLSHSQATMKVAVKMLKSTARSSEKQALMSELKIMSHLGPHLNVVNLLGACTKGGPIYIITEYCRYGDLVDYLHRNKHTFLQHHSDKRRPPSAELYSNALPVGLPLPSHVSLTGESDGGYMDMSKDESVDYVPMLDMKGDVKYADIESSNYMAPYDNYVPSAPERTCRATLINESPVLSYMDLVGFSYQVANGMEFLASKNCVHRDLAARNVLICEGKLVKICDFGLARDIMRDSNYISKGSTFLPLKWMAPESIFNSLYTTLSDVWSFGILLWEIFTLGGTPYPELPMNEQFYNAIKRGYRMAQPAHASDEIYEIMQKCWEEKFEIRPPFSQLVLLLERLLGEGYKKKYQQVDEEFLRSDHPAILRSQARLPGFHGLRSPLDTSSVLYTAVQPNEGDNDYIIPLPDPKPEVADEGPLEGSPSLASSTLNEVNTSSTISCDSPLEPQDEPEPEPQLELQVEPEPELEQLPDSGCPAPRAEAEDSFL

System in the first data set: not given
Assay: not given
Conditions: not given
`CCn1c(N)c(C(=O)NC)c(=O)c2ccc(-c3ccc(NS(=O)(=O)c4cccc(F)c4)c(F)c3)nc21` [compound No. 2, 2-amino-1-ethyl-7-(3-fluoro-4-{[(3-fluorophenyl)sulfonyl]amino}phenyl)-N-methyl-4-oxo-1,4-dihydro-1,8-naphthyridine-3-carboxamide] came in with a melting point of 256 °C.

Compound `CCn1c(N)c(C(=O)NC)c(=O)c2ccc(-c3ccc(NS(=O)(=O)c4ccc(F)cc4)c(F)c3)nc21` [compound No. 24, 2-amino-1-ethyl-7-(3-fluoro-4-{[(4-fluorophenyl)sulfonyl]amino}phenyl)-N-methyl-4-oxo-1,4-dihydro-1,8-naphthyridine-3-carboxamide] gave a melting point of over 260 °C.

Take `C=CS(=O)(=O)Nc1ccc(-c2ccc3c(=O)c(C(=O)NC)c(N)n(CC)c3n2)cc1F` [compound No. 3, 2-amino-7-{4-[(ethenylsulfonyl)amino]-3-fluorophenyl}-1-ethyl-N-methyl-4-oxo-1,4-dihydro-1,8-naphthyridine-3-carboxamide]: the melting point is over 260 °C.

`CCn1c(N)c(C(=O)NC)c(=O)c2ccc(-c3ccc(NS(=O)(=O)c4cccc(Cl)c4Cl)c(C)c3)nc21` [compound No. 15, 2-amino-7-(4-{[(2,3-dichlorophenyl)sulfonyl]amino}-3-methylphenyl)-1-ethyl-N-methyl-4-oxo-1,4-dihydro-1,8-naphthyridine-3-carboxamide] registered a melting point of 299 °C.

Consider `CCn1c(N)c(C(=O)NC)c(=O)c2ccc(-c3ccc(NS(=O)(=O)Cc4ccccn4)c(F)c3)nc21` (as salt: HCl) [compound No. 27, 2-amino-1-ethyl-7-(3-fluoro-4-{[(pyridin-2-ylmethyl)sulfonyl]amino}phenyl)-N-methyl-4-oxo-1,4-dihydro-1,8-naphthyridine-3-carboxamide], for which the melting point is 260 °C.

As for `CCn1c(N)c(C(=O)NC)c(=O)c2ccc(-c3ccc(NS(C)(=O)=O)cc3)nc21` [compound No. 16, 2-amino-1-ethyl-N-methyl-7-{4-[(methylsulfonyl)amino]phenyl}-4-oxo-1,4-dihydro-1,8-naphthyridine-3-carboxamide], the melting point is over 300 °C.

On to `CCn1c(N)c(C(=O)NC)c(=O)c2ccc(-c3ccc(NS(=O)(=O)c4ccccc4Cl)cc3)nc21` [compound No. 19, 2-amino-7-(4-{[(2-chlorophenyl)sulfonyl]amino}phenyl)-1-ethyl-N-methyl-4-oxo-1,4-dihydro-1,8-naphthyridine-3-carboxamide], for which the melting point is over 260 °C.

`CCn1c(N)c(C(=O)NC)c(=O)c2ccc(-c3ccc(NS(=O)(=O)c4ccc(N5CCOCC5)nc4)c(F)c3)nc21` (as salt: HCl) [compound No. 26, 2-amino-1-ethyl-7-[3-fluoro-4-({[6-(morpholin-4-yl)pyridin-3-yl]sulfonyl}amino)phenyl]-N-methyl-4-oxo-1,4-dihydro-1,8-naphthyridine-3-carboxamide] had a melting point of over 260 °C.

Turning to `CCn1c(N)c(C(=O)NC)c(=O)c2ccc(-c3ccc(NS(=O)(=O)c4cccc(Cl)c4)c(F)c3)nc21` [compound No. 22, 2-amino-7-(4-{[(3-chlorophenyl)sulfonyl]amino}-3-fluorophenyl)-1-ethyl-N-methyl-4-oxo-1,4-dihydro-1,8-naphthyridine-3-carboxamide], the melting point is over 260 °C.

`CCCCS(=O)(=O)Nc1ccc(-c2ccc3c(=O)c(C(=O)NC)c(N)n(CC)c3n2)cc1F` [compound No. 7, 2-amino-7-{4-[(butylsulfonyl)amino]-3-fluorophenyl}-1-ethyl-N-methyl-4-oxo-1,4-dihydro-1,8-naphthyridine-3-carboxamide]: the melting point lay within 165 to 167 °C.

In the case of `CCn1c(N)c(C(=O)NC)c(=O)c2ccc(-c3ccc(NS(=O)(=O)Cc4cccnc4)c(F)c3)nc21` (as salt: HCl) [compound No. 1, 2-amino-1-ethyl-7-(3-fluoro-4-{[(pyridin-3-ylmethyl)sulfonyl]amino}phenyl)-N-methyl-4-oxo-1,4-dihydro-1,8-naphthyridine-3-carboxamide], the melting point fell in the range of 220 to 223 °C.

Compound `CCn1c(N)c(C(=O)NC)c(=O)c2ccc(-c3ccc(NS(=O)(=O)c4cc(Cl)ccc4Cl)cc3Cl)nc21` [compound No. 12, 2-amino-7-(2-chloro-4-{[(2,5-dichlorophenyl)sulfonyl]amino}phenyl)-1-ethyl-N-methyl-4-oxo-1,4-dihydro-1,8-naphthyridine-3-carboxamide] showed a melting point of 323 °C.

With `CCn1c(N)c(C(=O)NC)c(=O)c2ccc(-c3ccc(NS(=O)(=O)c4ccc(F)c(F)c4)c(F)c3)nc21` [compound No. 23, 2-amino-7-(4-{[(3,4-difluorophenyl)sulfonyl]amino}-3-fluorophenyl)-1-ethyl-N-methyl-4-oxo-1,4-dihydro-1,8-naphthyridine-3-carboxamide], the melting point was over 260 °C.

The compound `CCn1c(N)c(C(=O)NC)c(=O)c2ccc(-c3ccc(NS(=O)(=O)c4cccc(Cl)c4Cl)cc3)nc21` [compound No. 17, 2-amino-7-(4-{[(2,3-dichlorophenyl)sulfonyl]amino}phenyl)-1-ethyl-N-methyl-4-oxo-1,4-dihydro-1,8-naphthyridine-3-carboxamide] registered a melting point of 210 °C.

`CCn1c(N)c(C(=O)NC)c(=O)c2ccc(-c3ccc(NS(=O)(=O)c4cccc(OC)c4)c(F)c3)nc21` [compound No. 25, 2-amino-1-ethyl-7-(3-fluoro-4-{[(3-methoxyphenyl)sulfonyl]amino}phenyl)-N-methyl-4-oxo-1,4-dihydro-1,8-naphthyridine-3-carboxamide] displayed a melting point of over 260 °C.

With `CCn1c(N)c(C(=O)NC)c(=O)c2ccc(-c3ccc(NS(=O)(=O)c4ccc(Cl)cc4)c(F)c3)nc21` [compound No. 21, 2-amino-7-(4-{[(4-chlorophenyl)sulfonyl]amino}-3-fluorophenyl)-1-ethyl-N-methyl-4-oxo-1,4-dihydro-1,8-naphthyridine-3-carboxamide], the melting point was over 260 °C.

Consider `CCn1c(N)c(C(=O)NC)c(=O)c2ccc(-c3ccc(NS(=O)(=O)c4cn(C)cn4)c(F)c3)nc21` (as salt: HCl) [compound No. 6, 2-amino-1-ethyl-7-(3-fluoro-4-{[(1-methyl-1H-imidazol-4-yl)sulfonyl]amino}phenyl)-N-methyl-4-oxo-1,4-dihydro-1,8-naphthyridine-3-carboxamide], for which the melting point was over 300 °C.

`CCn1c(N)c(C(=O)NC)c(=O)c2ccc(-c3ccc(NS(=O)(=O)c4cccc(Cl)c4Cl)cc3Cl)nc21` [compound No. 13, 2-amino-7-(2-chloro-4-{[(2,3-dichlorophenyl)sulfonyl]amino}phenyl)-1-ethyl-N-methyl-4-oxo-1,4-dihydro-1,8-naphthyridine-3-carboxamide]: the melting point was determined as 239 °C.

`CCn1c(N)c(C(=O)NC)c(=O)c2ccc(-c3ccc(NS(=O)(=O)CCN(C)C)c(F)c3)nc21` (as salt: HCl) [compound No. 4, 2-amino-7-[4-({[2-(dimethylamino)ethyl]sulfonyl}amino)-3-fluorophenyl]-1-ethyl-N-methyl-4-oxo-1,4-dihydro-1,8-naphthyridine-3-carboxamide] returned a melting point of 268 to 270 °C.

`CCn1c(N)c(C(=O)NC)c(=O)c2ccc(-c3ccc(NS(=O)(=O)Cc4cccc(N)c4)c(F)c3)nc21` (as salt: HCl) [compound No. 5, 2-amino-7-(4-{[(3-aminobenzyl)sulfonyl]amino}-3-fluorophenyl)-1-ethyl-N-methyl-4-oxo-1,4-dihydro-1,8-naphthyridine-3-carboxamide] had a melting point of over 260 °C.

With `CCn1c(N)c(C(=O)NC)c(=O)c2ccc(-c3ccc(NS(=O)(=O)c4c(Cl)cccc4Cl)c(F)c3)nc21` [compound No. 11, 2-amino-7-(4-{[(2,6-dichlorophenyl)sulfonyl]amino}-3-fluorophenyl)-1-ethyl-N-methyl-4-oxo-1,4-dihydro-1,8-naphthyridine-3-carboxamide], the melting point amounted to 321 °C.

A further data set addresses T1, fusion protein Tel/PDGF-R beta (BaF3 Tel/PDGF cells) (Homo sapiens, UniProt P09619).
T1 construct: the transmembrane and intracellular part of the PDGF-R beta receptor; N-terminal part of transcription factor Tel (ETV6, own knowledge: UniProt P41212), containing the oligomerization domain; expressed in transfected cells; host or cells: murine hematopoietic cell line BaF/3 (BaF3 Tel/PDGF); the other entry of the earlier key: ETV6 (P41212, Transcription factor ETV6)
The data set is described as follows: Inhibition of PDGF beta receptor tyrosine kinase activity: proliferation of BaF3 Tel/PDGF cells. It counts as cell-based, murine. The settings on record: 72 h incubation, viable cells by cellular ATP (CellTiter-Glo); read-out: IC50, concentration which inhibits 50% of the proliferation of the Baf3 tel/PDGF cells. An excerpt: The inhibitory activity on the PDGF receptor kinases is given by the concentration which inhibits 50% of the proliferation activity of Baf3 tel/PDGF cells respectively. The inhibitory activity on p70S6 kinase is given by the concentration which inhibits 50% of the phosphorylation of the peptide substrate derived from the S6 ribosomal protein (AKRRRLSSLRA, Upstate).
Measurement of the inhibition of the PDGF beta receptor (PDGF-Rβ) tyrosine kinase activity (Baf-3 tel/PDGFRβ):
This test consists in evaluating the effects of the compounds on the PDGF beta receptor tyrosine kinase activity.
The inhibitory effect of the compounds according to the invention toward the PDGF-R receptor tyrosine kinase activity was evaluated on the hematopoietic murine cell line BaF/3 transfected with a plasmid encoding the fusion protein Tel/PDGF-R beta. This fusion protein is found in chronic myelomonocytic myeloid leukemias (CMML). It comprises the N-terminal part of the transcription factor Tel and the transmembrane and intracellular part of the PDGF-R beta receptor. This fusion protein is present in dimerized form (presence of an oligomerization domain in the N-terminal part of Tel) and therefore leads to the constitutive activity of the PDGF-R beta kinase domain. This BaF3 Tel/PDGF line has been described in the literature several times and in particular in detail in the article by CARROLL, M. et al., PNAS, 1996, 93, 14845-14850, CARROLL, M. et al., Blood 2002, 99, 14845-14850.
The BaF3 Tel/PDGF cells are washed with phosphate buffer and inoculated in 96-well plates, at the density of 5×10^4 cells/ml ([…]), in RPMI 1640 containing 10% FCS, in the presence or absence of the compounds to be tested. After 72 h of incubation, the viable cells are quantified by measuring the cellular ATP using the kit CellTiter-Glo®(Promega, Cat G7571). The cells are treated according to the instructions given by the kit supplier and the luminescence is measured with the aid of a Luminoskan (Ascent, Labsystem) with the following parameters: measurement: single; integration time: 1000 ms, lag time: 5 s.
It is thus apparent that the compounds according to the invention have an inhibitory activity on the PDGF-R beta tyrosine kinase activity. This activity is given by the concentration which inhibits 50% of the proliferation of the Baf3 tel/PDGF cells (IC50).
In the case of `CCn1c(N)c(C(=O)NC)c(=O)c2ccc(-c3ccc(NS(=O)(=O)c4cccc(F)c4)c(F)c3)nc21` [compound No. 2, 2-amino-1-ethyl-7-(3-fluoro-4-{[(3-fluorophenyl)sulfonyl]amino}phenyl)-N-methyl-4-oxo-1,4-dihydro-1,8-naphthyridine-3-carboxamide], the IC50 is 36 nM.

As for `CCn1c(N)c(C(=O)NC)c(=O)c2ccc(-c3ccc(NS(=O)(=O)c4ccc(F)cc4)c(F)c3)nc21` [compound No. 24, 2-amino-1-ethyl-7-(3-fluoro-4-{[(4-fluorophenyl)sulfonyl]amino}phenyl)-N-methyl-4-oxo-1,4-dihydro-1,8-naphthyridine-3-carboxamide], the IC50 worked out at 24 nM.
